Counter-ions that a name gives are not always drawn.
Experiments:
[1] = target: T1, SHIP2 immunoprecipitated from the lysates of hepatoma cells (Rattus norvegicus, UniProt Q9WVR3); assay: Activity of SHIP2 immunoprecipitated from hepatoma cells; assay type: cell-based; conditions: 10 µM, 20–24 h
T1 construct: endogenous in cells; host or cells: Fao hepatoma cells
T1 sequence (Q9WVR3 1-1257): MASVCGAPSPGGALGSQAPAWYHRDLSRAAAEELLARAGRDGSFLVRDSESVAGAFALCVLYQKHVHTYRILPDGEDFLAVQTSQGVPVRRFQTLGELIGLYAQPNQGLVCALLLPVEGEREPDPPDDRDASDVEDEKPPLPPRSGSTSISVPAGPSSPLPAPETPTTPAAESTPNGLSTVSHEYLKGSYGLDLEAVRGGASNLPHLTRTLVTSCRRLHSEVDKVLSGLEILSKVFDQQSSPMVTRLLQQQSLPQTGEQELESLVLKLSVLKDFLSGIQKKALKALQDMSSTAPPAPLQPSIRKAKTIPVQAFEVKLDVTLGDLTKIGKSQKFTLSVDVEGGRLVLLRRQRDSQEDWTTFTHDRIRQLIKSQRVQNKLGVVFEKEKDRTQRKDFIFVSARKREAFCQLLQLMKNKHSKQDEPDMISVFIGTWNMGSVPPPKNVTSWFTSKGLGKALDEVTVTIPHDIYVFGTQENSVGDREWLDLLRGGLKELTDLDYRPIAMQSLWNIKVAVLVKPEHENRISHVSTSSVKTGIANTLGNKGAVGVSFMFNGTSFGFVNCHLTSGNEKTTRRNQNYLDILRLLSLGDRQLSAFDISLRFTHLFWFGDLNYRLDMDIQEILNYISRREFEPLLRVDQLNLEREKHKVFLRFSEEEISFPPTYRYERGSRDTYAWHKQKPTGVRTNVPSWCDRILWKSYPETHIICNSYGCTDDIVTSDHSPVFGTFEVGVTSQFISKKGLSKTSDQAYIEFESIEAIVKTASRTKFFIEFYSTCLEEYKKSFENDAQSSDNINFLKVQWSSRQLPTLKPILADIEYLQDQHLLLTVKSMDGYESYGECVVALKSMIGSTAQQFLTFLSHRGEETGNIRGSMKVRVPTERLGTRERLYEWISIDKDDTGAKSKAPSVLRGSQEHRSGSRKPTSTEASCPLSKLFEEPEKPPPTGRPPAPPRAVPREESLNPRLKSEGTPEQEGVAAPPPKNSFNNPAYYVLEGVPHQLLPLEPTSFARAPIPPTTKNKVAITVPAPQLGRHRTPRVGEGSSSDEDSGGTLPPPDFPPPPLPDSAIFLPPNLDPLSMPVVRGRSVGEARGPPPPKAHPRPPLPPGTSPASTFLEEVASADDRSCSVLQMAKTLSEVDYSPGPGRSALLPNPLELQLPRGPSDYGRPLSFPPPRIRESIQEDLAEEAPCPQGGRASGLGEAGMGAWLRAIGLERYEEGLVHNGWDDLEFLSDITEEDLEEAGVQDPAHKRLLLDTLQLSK
Experimental: (§4) Immunocomplexes were bound to protein G-Sepharose beads at +4°C for 2 h and washed 3 times with malachite green phosphate assay buffer {10 mM 4-(2-hydroxyethyl)-1-piperazineethanesulfonic acid (HEPES), pH 7.25, 6 mM MgCl2, 0.1% 3-[(3-cholamidopropyl)dimethylammonio]-1-propanesulfonate (CHAPS), 250 mM sucrose, and 0.25 mM EDTA}.
The catalytic activity of SHIP2 immunoprecipitated from cell and tissue lysates was determined as in Saurus et al. ([22]), omitting SHIP2 inhibitors in lysis buffer, immunoprecipitation reaction, wash, and assay buffers.

[2] = test system: SHIP2-overexpressing podocytes; assay: Apoptosis of SHIP2-overexpressing podocytes (cleaved caspase-3 immunoblot, Annexin V flow cytometry); assay type: cell-based, human; conditions: 2 mM, 48 h
Experimental: Immortalized human podocytes were maintained as previously described ([10]). Lentiviral infection was used to overexpress or knock down transiently SHIP2 in cultured cells on d 10–12 of differentiation for 48 h (basal level) or 72 h (insulin stimulation), as previously described ([10], [20]). […] Apoptosis was measured by flow cytometry using the Annexin V-FITC Apoptosis Kit (Becton Dickinson, Franklin Lakes, NJ, USA) and double staining with 7-aminoactinomycin D (Becton Dickinson), as previously described ([10]). Podocytes were lysed as previously described ([21]). Myotubes, hepatoma cells, and tissues were lysed and immunoblotting performed as in Tolvanen et al. ([19]) with anti-SHIP2 and anti-AMPK (Santa Cruz Biotechnology, Dallas, TX, USA); anti-phospho (p)Akt (S473), anti-pAMPK (Thr172), anti-AMPK, and anti-cleaved caspase-3 (Cell Signaling Technology, Danvers, MA, USA); anti-Pan Akt (R&D Systems, Minneapolis, MN, USA); anti-tubulin, anti-Glut4, and anti-Glut1 (MilliporeSigma, Burlington, MA, USA); and anti-actin (Abcam, Cambridge, United Kingdom).
Cell lysates were subjected to immunoblot analysis with anti-SHIP2, anti-cleaved caspase-3, and anti-actin IgGs. […] B, C) Quantification of SHIP2 and cleaved caspase-3 levels in A, normalized to actin. […] Apoptosis was measured by flow cytometry using Annexin V-FITC and 7-aminoactinomycin D (7AAD) double staining. […]

[3] = test system: podocytes in kidneys of patients with T2D; assay: Podocyte number per glomerulus (WT1-positive cells) in patient kidneys; assay type: in vivo, human; conditions: compared with people without T2D; WT1-positive cells per glomeruli
From the text: The use of human material was approved by the local Ethics Committee, and written, informed consent was received from study participants. Paraffin sections were stained with anti-SHIP2 (I-20) as in Hyvonen et al. ([10]) or anti- Wilms tumor protein 1 (WT1; Santa Cruz Biotechnology) using the Brightvision Poly-HRP-anti-Rabbit IgG kit (ImmunoLogic, Amsterdam, The Netherlands) and 3,3′-diaminobenzidine (Dako Cytomation, Carpinteria, CA, USA). Slides were counterstained with hematoxylin and digitally scanned with 3DHistech Pannoramic 250 FLASH II (3DHistech, Budapest, Hungary) at the Genome Biology Unit (University of Helsinki). Quantification of SHIP2 staining intensity was performed with the HistoQuant module (3DHistech). Podocyte number was estimated by counting the number of WT1-positive cells per glomerular cross-section in 10 glomeruli per patient in a blinded manner, as described in Guo et al. ([24]). Only glomeruli larger than 170 µm in diameter were examined to ensure sectioning through the center of each glomerulus.
Kidney samples were lysed, and the enzymatic activity of immunoprecipitated SHIP2 was analyzed by malachite green phosphate assay (n = 4–7). […] Ten randomly chosen glomeruli were analyzed from each patient (n = 6–7). […] Podocyte number per glomeruli was quantified by counting WT1-positive cells. Ten randomly chosen glomeruli were analyzed from each patient (n = 9–30).

SHIP2 expression level = assay: Immunoblot of SHIP2 expression in cultured cells; assay type: cell-based, rat, human; conditions: 2 mM, 20–24 h; myotubes, podocytes, hepatoma cells
From the text: Rat L6 myoblasts (American Type Culture Collection, Manassas, VA, USA) and hepatoma cells (Fao Cells, Culture Collection; Public Health England, Salisbury, United Kingdom) were maintained according to the provider’s instructions. L6 myoblasts stably expressing hemagglutinin-GLUT4-green fluorescent protein (HA-GLUT4-GFP, referred to as L6-GLUT4) were generated, as previously described ([19]). Immortalized human podocytes were maintained as previously described ([10]). Lentiviral infection was used to overexpress or knock down transiently SHIP2 in cultured cells on d 10–12 of differentiation for 48 h (basal level) or 72 h (insulin stimulation), as previously described ([10], [20]). Human pLKO1-short hairpin RNA (shRNA) SHIP2 ([sequence]) was obtained from Functional Genomics Unit, University of Helsinki. […] Podocytes were lysed as previously described ([21]). Myotubes, hepatoma cells, and tissues were lysed and immunoblotting performed as in Tolvanen et al. ([19]) with anti-SHIP2 and anti-AMPK (Santa Cruz Biotechnology, Dallas, TX, USA); anti-phospho (p)Akt (S473), anti-pAMPK (Thr172), anti-AMPK, and anti-cleaved caspase-3 (Cell Signaling Technology, Danvers, MA, USA); anti-Pan Akt (R&D Systems, Minneapolis, MN, USA); anti-tubulin, anti-Glut4, and anti-Glut1 (MilliporeSigma, Burlington, MA, USA); and anti-actin (Abcam, Cambridge, United Kingdom).

[4] = test system: HA-GLUT4-GFP at the plasma membrane of L6-GLUT4 cells; assay: On-Cell Western and HA-GLUT4-GFP endocytosis assay in L6-GLUT4 cells; assay type: cell-based, rat; conditions: 20–24 h
Experimental: (§1) Glucose uptake assay and On-Cell Western were performed essentially as in Tolvanen et al. ([19]). […] Cells were transferred on ice; incubated with anti-HA IgG in serum-free medium for 15 min, followed by additional incubation in fresh cell differentiation medium for 15 min at +37°C; and fixed with 2% paraformaldehyde for 20 min. Cells were incubated with IRDye 800 donkey anti-mouse IgG and nuclear marker DRAQ-5 (Thermo Fisher Scientific). Detection and quantitation were performed with the Odyssey Infrared Imager (Li-Cor Biosciences, Lincoln, NE, USA).
C) Knockdown of SHIP2 reduces metformin-induced glucose uptake. […] L6-GLUT4 myotubes overexpressing SHIP2 were treated and glucose uptake performed as described in C. […] Time point 15 min indicates the amount of HA detected on the cells after 15 min internalization.

db/db mice = assay: Metabolic assays in db/db mice; assay type: in vivo, mouse; conditions: 250 mg/kg per day, 12 d
Experimental: At the end of the experiment, mice were euthanized.
Insulin tolerance test was performed and blood glucose measured at the indicated times after insulin injection, and the area under the curve (AUC) was calculated (n = 5–6).

[5] = test system: Akt phosphorylation (pAkt S473); assay: Immunoblot of Akt phosphorylation in cultured cells; assay type: cell-based, rat, human; conditions: 2 mM, 20–24 h
Experimental: Lentiviral infection was used to overexpress or knock down transiently SHIP2 in cultured cells on d 10–12 of differentiation for 48 h (basal level) or 72 h (insulin stimulation), as previously described ([10], [20]). […] Podocytes were lysed as previously described ([21]). Myotubes, hepatoma cells, and tissues were lysed and immunoblotting performed as in Tolvanen et al. ([19]) with anti-SHIP2 and anti-AMPK (Santa Cruz Biotechnology, Dallas, TX, USA); anti-phospho (p)Akt (S473), anti-pAMPK (Thr172), anti-AMPK, and anti-cleaved caspase-3 (Cell Signaling Technology, Danvers, MA, USA); anti-Pan Akt (R&D Systems, Minneapolis, MN, USA); anti-tubulin, anti-Glut4, and anti-Glut1 (MilliporeSigma, Burlington, MA, USA); and anti-actin (Abcam, Cambridge, United Kingdom).
Cell lysates were subjected to immunoblot analysis with anti-SHIP2, anti-cleaved caspase-3, and anti-actin IgGs. […] Cell lysates were subjected to immunoblot analysis with anti-SHIP2, anti-Akt, anti-pAkt, and anti-actin IgGs. G) Quantification of pAkt levels in F presented as pAkt/Akt after normalizing to actin. Data are presented as the mean ± SD of 3–5 independent experiments. *P ≤ 0.05, **P ≤ 0.01, ***P ≤ 0.001 (Student’s t test).

[6] = test system: Immortalized human podocytes; assay: Glucose uptake assay in podocytes; assay type: cell-based
Experimental: (§2) Immortalized human podocytes were maintained as previously described ([10]). […] Podocytes were lysed as previously described ([21]).
as §1
(§3) L6-GLUT4 myotubes overexpressing SHIP2 were treated and glucose uptake performed as described in C. […] Time point 15 min indicates the amount of HA detected on the cells after 15 min internalization.

[7] = target: T2, purified His-tagged SHIP2 phosphatase domain (Homo sapiens, UniProt O15357); assay: Manual malachite green phosphate assay (96-well), purified SHIP2 phosphatase domain; assay type: biochemical; conditions: 10 µM; 100 ng enzyme; manual assay (Fig. 1B)
T2 construct: we produced a His-tagged human SHIP2 phosphatase domain; His; made in house
T2 sequence (O15357 419-732 limits assumed): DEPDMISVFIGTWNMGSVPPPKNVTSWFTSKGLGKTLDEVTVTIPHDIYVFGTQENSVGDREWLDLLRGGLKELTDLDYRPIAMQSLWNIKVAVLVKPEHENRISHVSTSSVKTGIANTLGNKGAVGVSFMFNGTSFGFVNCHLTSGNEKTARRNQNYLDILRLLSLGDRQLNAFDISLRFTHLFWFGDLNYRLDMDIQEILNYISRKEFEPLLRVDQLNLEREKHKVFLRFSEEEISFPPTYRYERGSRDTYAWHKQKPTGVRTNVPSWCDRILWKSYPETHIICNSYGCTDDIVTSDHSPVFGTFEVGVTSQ
Experimental: as §4
The catalytic activities of the recombinant SHIP2 and SHIP1 phosphatase domains were determined by malachite green phosphate assay at the High Throughput Biomedicine Unit (University of Helsinki) using D-myo-PI(3,4,5)P3 (Echelon Biosciences, Salt Lake City, UT, USA). Different volumes, resulting in desired final concentrations of inhibitors, were transferred to the wells of 384-well plates by using the Echo550 acoustic dispenser (Labcyte, San Jose, CA, USA). Recombinant protein (100 ng) in reaction buffer {10 mM HEPES, pH 7.25, 6 mM MgCl2, 0.1% CHAPS, 250 mM sucrose, and 0.25 mM EDTA} was placed in each well (7.5 µl), and the plates were preincubated at room temperature for 15 min. The phosphatase reaction was started by adding PI(3,4,5)P3 diluted in the reaction buffer (7.5 µl) to each well to reach a final concentration of 100 µM PI(3,4,5)P3 in the 15 µl reaction volume. […] Absorbance was measured at 620 nm using a Pherastar FS plate reader (BMG Labtech, Offenburg, Germany). […]
The catalytic activity of SHIP2 was measured by manual malachite green phosphate assay. […]

L6-GLUT4 myotubes = assay: Glucose uptake assay in L6-GLUT4 myotubes; assay type: cell-based, rat; conditions: metformin 2 mM
Experimental: as §2, §1, §3

[8] = 20–24 h, insulin 100 nM, 15 min

In the case of C[C@H](NC(=O)c1sccc1OCc1ccc(Cl)cc1)c1ccccc1 [AS1949490], the “inhibition of SHIP2 in hepatoma cells” value [1] is reported as “did not inhibit”.
In the case of CN(C)C(=N)N=C(N)N [Metformin, 1,1-Dimethylbiguanide hydrochloride], the “cleaved caspase-3 level in SHIP2-overexpressing podocytes” value [2] is reported as “back to the level in the control”, the “level of apoptosis (Annexin V, flow cytometry) in SHIP2-overexpressing podocytes” value [2] is reported as “back to the level of the control” and the “podocyte loss in metformin-receiving patients” value [3] is reported as 11%. The “effect on SHIP2 expression level in cultured cells” value (SHIP2 expression level) was “no effect”, the “increase in amount of HA-GLUT4-GFP on the PM” value ([4]; L6-GLUT4 cells, basal conditions, 2 mM) was 40% and the “decrease in amount of HA-GLUT4-GFP on the PM after 15 min uptake (endocytosis)” value ([4]; metformin 2 mM) was 10%. The “effect on body weight” value (db/db mice) was “no effect”, the “effect on fasting blood glucose concentrations” value (db/db mice; 6 h fasting) was “no effect” and the “effect on urinary albumin excretion” value (db/db mice; 24 h urine) was “no effect”. The “insulin tolerance test: fasting blood glucose at 30–120 min after insulin administration” value (db/db mice; insulin 0.75 U/kg) was “reduces”, the “insulin tolerance test: glucose area under the curve” value (db/db mice; insulin 0.75 U/kg) was “reduces” and the “insulin-induced Akt phosphorylation in SHIP2-overexpressing podocytes” value ([5]; insulin 200 nM, 15 min) was “restored its activity”. For the same compound, the “Akt phosphorylation (activity) in basal state” value ([5]; myotubes and podocytes) was “did not increase”, the “increase in glucose uptake in podocytes” value [6] was 52% and the “increase in glucose uptake in podocytes, metformin together with insulin” value [6] was 80%. The “reduction of catalytic activity of recombinant SHIP2 phosphatase domain” value [7] was 44%, the “increase in insulin-stimulated glucose uptake, SHIP2 knockdown” value (L6-GLUT4 myotubes; SHIP2 shRNA, 20–24 h, insulin 100 nM, 15 min) was 109% and the “increase in glucose uptake in L6-GLUT4 myotubes” value (L6-GLUT4 myotubes; control shRNA, 20–24 h, insulin 100 nM, 15 min) was 148%. For the same compound, the “increase in glucose uptake in empty vector-transfected myotubes” value (L6-GLUT4 myotubes; [8]) was 155%, the “increase in insulin-stimulated glucose uptake, SHIP2 overexpression” value (L6-GLUT4 myotubes; [8]) was 76% and the “increase in glucose uptake in L6-GLUT4 cells” value (L6-GLUT4 myotubes; 20–24 h, serum-starved) was 218%. For the same compound, the “glucose uptake in L6-GLUT4 cells, metformin together with insulin” value (L6-GLUT4 myotubes; 20–24 h plus insulin 100 nM, 15 min) was “did not have an additive effect”.
